Experimental data: ChEMBL document CHEMBL4477199, “Design and synthesis of novel bicalutamide and enzalutamide derivatives as antiproliferative agents for the treatment of prostate cancer” (Eur J Med Chem, 2016)

Legend:
[1] = 96 h
Description: Solubility in RPMI1640 culture medium at <30 uM incubated for 4 days by microscopic analysis

DU-145 = assay: Antiproliferative activity against human DU145 cells after 96 hrs by propidium iodide staining based fluorescence 2D monolayer assay; type: functional, cell-based; details: DU-145, 96 h
CWR22R = assay: Antiproliferative activity against human 22Rv1 cells after 96 hrs by propidium iodide staining based fluorescence 2D monolayer assay; type: functional, cell-based; details: 22Rv1, 96 h
LNCaP = assay: Antiproliferative activity against human LNCAP cells after 96 hrs by propidium iodide staining based fluorescence 2D monolayer assay; type: functional, cell-based
VCaP = assay: Antiproliferative activity against human VCaP cells after 96 hrs by propidium iodide staining based fluorescence 2D monolayer assay; type: functional, cell-based
[2] = 33000 µM
Description: Solubility in 100% DMSO at 33 mM at -20 degC

| Compound | solubility [1] | IC50 (DU-145) [µM] | IC50 (CWR22R) [µM] | IC50 (LNCaP) [µM] | IC50 (VCaP) [µM] | solubility [2] |
| --- | --- | --- | --- | --- | --- | --- |
| CC(O)(COc1ccccc1C(F)(F)F)C(=O)Nc1ccc(C(F)(F)F)cc1 (configuration not stated) | Soluble | 26.4 | 6.42 | 6.98 | 11.5 | Soluble |
| CC(O)(CSc1ccc(C(F)(F)F)cc1)C(=O)Nc1ccc([N+](=O)[O-])c(C(F)(F)F)c1 (configuration not stated) | Soluble | 22.5 | 16.4 | 28.7 | 21.2 | Soluble |
| CC(O)(CS(=O)(=O)c1ccc(OC(F)(F)F)cc1)C(=O)Nc1ccc(C#N)c(C(F)(F)F)c1 (configuration not stated) | Soluble | 27.3 | 17 | 31.6 | 32.8 | Soluble |
| CC(O)(COc1ccc(OC(F)(F)F)cc1)C(=O)Nc1ccc(C#N)c(C(F)(F)F)c1 (configuration not stated) | Soluble | 18.4 | 17.2 | 13.6 | 17.6 | Soluble |
| C[C@](O)(CSc1ccccc1C(F)(F)F)C(=O)Nc1ccc(C#N)c(C(F)(F)F)c1 | – | 7.69 | 5.3 | 7.9 | 2.95 | – |
| CC(O)(COc1ccc(F)cc1F)C(=O)Nc1ccc([N+](=O)[O-])c(C(F)(F)F)c1 (configuration not stated) | Soluble | 22.4 | 20.2 | 10.1 | 20.9 | Soluble |
| CC(O)(COc1ccc(F)c(F)c1)C(=O)Nc1ccc(C#N)cc1C(F)(F)F (configuration not stated) | Soluble | 41.9 | 37 | 34.8 | 47.2 | Soluble |
| CC(O)(COc1cccc(C(F)(F)F)c1)C(=O)Nc1ccc(C(F)(F)F)cc1 (configuration not stated) | Soluble | 27.4 | 25.7 | 18.2 | 18.6 | Soluble |
| CC(O)(CS(=O)(=O)c1ccccc1C(F)(F)F)C(=O)Nc1ccc(C#N)cc1C(F)(F)F (configuration not stated) | Soluble | 100 | 98.8 | 74 | 100 | Soluble |
| CC(O)(COc1ccccc1C(F)(F)F)C(=O)Nc1ccc(C#N)c(C(F)(F)F)c1 (configuration not stated) | Soluble | 17.3 | 11.6 | 9.68 | 16.6 | Soluble |
| C[C@](O)(CSc1ccc(F)cc1F)C(=O)Nc1ccc(C#N)c(C(F)(F)F)c1 | Soluble | 28.5 | 17.2 | 25.2 | 18.3 | Soluble |
| CC(O)(COc1ccc(C(F)(F)F)cn1)C(=O)Nc1ccc(C#N)cc1C(F)(F)F (configuration not stated) | Soluble | 100 | 100 | 100 | 100 | Soluble |
| CC(O)(COc1cccc(C(F)(F)F)c1)C(=O)Nc1ccc([N+](=O)[O-])c(C(F)(F)F)c1 (configuration not stated) | Soluble | 10 | 8.58 | 9.91 | 10.3 | Soluble |
| CC(O)(CS(=O)(=O)c1ccc(F)cc1F)C(=O)Nc1ccc([N+](=O)[O-])cc1C(F)(F)F (configuration not stated) | Soluble | 46.6 | 30.2 | 17.9 | 58 | Soluble |
| CC(O)(CS(=O)(=O)c1ccc(C(F)(F)F)cc1)C(=O)Nc1ccc([N+](=O)[O-])cc1C(F)(F)F (configuration not stated) | Soluble | 40.9 | 25.4 | 29.3 | 46.9 | Soluble |
| CC(O)(CSc1ccc(C(F)(F)F)cc1)C(=O)Nc1ccc(C#N)c(C(F)(F)F)c1 (configuration not stated) | Soluble | – | – | – | – | Soluble |
| CC(O)(CSc1ccc(C(F)(F)F)cc1)C(=O)Nc1ccc(C#N)cc1C(F)(F)F (configuration not stated) | Soluble | – | – | – | – | Soluble |
